Experiments:
[1] = test system: Huh7 cells; assay: Apoptosis/necrosis assay (flow cytometry, GFP Certified Apoptosis/Necrosis detection kit); type: cell-based, human; conditions: 24 hours, SK1-I 10, 20, 40 μM, ozanimod 5, 10, 20 μM, ABC294640 10, 20, 40 μM
Method: (§1) Apoptosis/necrosis assays evaluating the effect of different concentrations of each of ozanimod, ABC294640 and SK1-I on the four human hepatocellular carcinoma cell lines, Hep G2, Hep 3B, Huh 7 and PLC-PRF5 were also performed.
(§2) The protocol used for the apoptosis assays was: • Plated cells in 6-well plates and incubated at 37° C. overnight. • Prepared concentrations of test compound and control compound DMSO in media. • Ozanimod: 5 μM, 10 μM, and 20 μM. • ABC294640: 10 μM, 20 μM, and 40 μM. • SK1-I: 10 μM, 20 μM, and 40 μM. • Control: 0.2% DMSO. • Aspirated the medium from the 6-well plates and added test compound concentrations in media or 0.2% DMSO control in media. Incubated at 37° C. for 24 hours. • Collected and processed the cells following the flow cytometry protocol of the GFP Certified® Apoptosis/Necrosis detection kit from Enzo Life Sciences, Inc. (product no. ENZ-51002; Farmingdale, NY, USA).
(§3) FIGS. 5-16 present graphs plotting the data from these 24-hour apoptosis assays for the different concentrations of compounds and no-drug control for the various cell lines. Channel FL2 picks up the apoptosis signal and channel FL3 picks up the necrosis signal. Data points in Quadrant 3 (Q3) in the graphs corresponds to cells undergoing apoptosis (cells positive for the apoptosis detection reagent of the assay). Data points in Quadrant 2 (Q2) in the graphs corresponds to cells that are positive for the apoptosis detection reagent and positive for the necrosis detection reagent of the assay (indicative of late-stage apoptosis).

[2] = test system: PLC-PRF5 cells; assay: as above; type: cell-based, human; conditions: 24 hours, SK1-I 10, 20, 40 μM, ozanimod 5, 10, 20 μM, ABC294640 10, 20, 40 μM
Method: as §1, §2, §3

[3] = test system: Hep 3B cells; assay: as above; type: cell-based, human; conditions: 24 hours, SK1-I 10, 20, 40 μM, ozanimod 10, 20, 40 μM, ABC294640 10, 20, 40 μM
Method: as §1
as §2, with “[…],” for “concentrations of test compound and control compound DMSO in media. • Ozanimod: 5 μM, 10 μM, and 20 μM. • ABC294640: 10 μM,”
as §3

[4] = test system: Hep G2 cells; assay: as above; type: cell-based, human; conditions: 24 hours, SK1-I 10, 20, 40 μM, ozanimod 10, 20, 40 μM, ABC294640 10, 20, 40 μM
Method: as §1
as §2, with “[…],” for “concentrations of test compound and control compound DMSO in media. • Ozanimod: 5 μM, 10 μM, and 20 μM. • ABC294640: 10 μM,”
as §3

[5] = test system: Jurkat cells (human T-cell leukemia cell line); assay: Apoptosis assay; type: cell-based; conditions: SK1-I 10, 20 μM, ozanimod 5, 10 μM
Method: as §2, §3

[6] = test system: primary human hepatocytes; assay: Apoptosis assay on normal (non-cancerous) primary human hepatocytes; type: cell-based; conditions: 24 hours; SK1-I 10, 20, 40 μM; ozanimod 2.5, 5, 10 μM; any concentration tested
Method: In still further experiments, the effects of SK1-I and ozanimod on normal (non-cancerous) primary human hepatocytes were investigated. Fresh human hepatocytes in a 12-well plate (HUF12) were obtained from Triangle Research Labs (Durham, NC, USA; part of Lonza Group) and handled according to the supplier's protocol. The shipping medium was aspirated from each well and replaced with 1 ml per well of warm Hepatocyte Maintenance Medium. The plate was then placed in a 5% CO2 incubator at 37° C. and the hepatocytes were allowed to acclimate overnight. The Hepatocyte Maintenance Medium was replaced before treatment with drug or no-drug control, and the hepatocytes were treated with 0 μM (no-drug control), 10 μM, 20 μM, or 40 μM SK1-I or 0 μM, 2.5 μM, 5 μM, or 10 μM ozanimod for 24 hours under incubation. The cells were then harvested and analyzed using the GFP Certified® Apoptosis/Necrosis detection kit. The results are shown in FIGS. 19A-D for SK1-I and FIGS. 20A-D for ozanimod as follows.

[7] = test system: Jurkat cells; assay: Cell viability effects (FIG. 21); type: cell-based, human; conditions: Jurkat cells without IL-2; 5 μM of each agent
[8] = test system: human hepatocellular carcinoma cell lines, Hep G2, Huh 7, and PLC-PRF5; assay: MTT cell viability assay (48 hours); type: cell-based; conditions: Hep G2, Huh 7, PLC-PRF5
Method: The following MTT assay protocol was followed. • Prepared stock solutions: 50 mM ozanimod, 50 mM ABC294640, 10 mM SK1-I in DMSO. • Plated 20000 cells in 160 μl medium per well in 96-well plates for each cell line and incubated at 37° C. overnight. • Prepared compound serial dilutions: for ozanimod and ABC294640: dilute stock 50 mM 1:50 in medium to 1000 μM; for SK1-I, dilute stock 10 mM 1:50 in medium to […] them make serial 1:1.8 fold serial dilution to the titration. For negative control, diluted DMSO 1:50 to medium. • Added 40 μl negative control and serially titrated compounds to 160 μl of cells for each cell line. Performed in triplicate for each cell line. • Incubated at 37° C. for 72 hours. • Performed assay using Vybrant MTT Cell Proliferation Assay kit (V-13154) (Molecular Probes) from Thermo Fisher Scientific (Waltham, MA USA).
48-hour treatment MTT assays were also performed as follows.

Compound | induction of apoptosis [1] | induction of apoptosis [2] | induction of apoptosis [3] | induction of apoptosis [4] | induction of apoptosis [5] | induction of apoptosis of primary human hepatocytes [6] | cell viability [7] | killing hepatocellular carcinoma cells, compared with PF-543 [8]
CC(C)Oc1ccc(-c2nc(-c3cccc4c3CC[C@@H]4NCCO)no2)cc1C#N [ozanimod, 5-[3-[(1S)-1-(2-hydroxyethylamino)-2,3-dihydro-1H-inden-4-yl]-1,2,4-oxadiazol-5-yl]-2-propan-2-yloxybenzonitrile] | strongly induced apoptosis | strongly induced apoptosis | strongly induced apoptosis | strongly induced apoptosis | strongly induced apoptosis | did not induce apoptosis | strongly decreases viability | 
O=C(NCc1ccncc1)C12CC3C[C@H](C1)CC(c1ccc(Cl)cc1)(C3)C2 [ABC294640, (7 S)-3-(4-chlorophenyl)-N-(pyridin-4-ylmethyl)adamantane-1-carboxamide] | failed to induce apoptosis | did not substantially induce apoptosis | did not substantially induce apoptosis | failed to induce apoptosis |  |  |  | 
CCCCCc1ccc(/C=C/[C@H](O)[C@@H](CO)NC)cc1 [SK1-I, (E,2R,3S)-2-(methylamino)-5-(4-pentylphenyl)pent-4-ene-1,3-diol] | strongly induced apoptosis | strongly induced apoptosis | strongly induced apoptosis | strongly induced apoptosis | strongly induced apoptosis | did not induce apoptosis |  | more effective at killing hepatocellular carcinoma cells than PF-543
